According to patent US7230139B2, “Diterpenoid compounds, compositions thereof and their use as anti-cancer or anti-fungal agents” (priority 2004, dated 2007):

Assays:
[1] = Solubility by filtration and LC/MS; format: physicochemical; settings: in water (printed for Compound 74)
Experimental: To determine whether a compound is soluble in a solution, the solution was filtered on […] polytetrafluoroethylene filters (Whatman Inc. Clifton, N.J., USA) and the compound concentration in the filtrate was measured by LC/MS and compared to the expected concentration. If the concentration of the compound in the filtrate was equal +/−15% to the expected concentration, the compound was judged to be soluble in the solution.
The detection of Compound 74 or Compound 50 by LC/MS was carried out using the HPLC system that consisted of a Waters Alliance quaternary gradient HPLC pump (Waters, Milford, Mass., USA) and a ZQ2000 single quadrupole mass spectrometer (Waters, Milford, Mass., USA). The column used was XTerra MS C18: 50×2.1 mm, […] column at 20° C. Samples were injected and separated under the following conditions: The mobile phase “A” consisted of 5 mM ammonium formate, 0.1% formic acid in water and mobile phase “B” consisted of 5 mM ammonium formate, 0.1% formic acid in methanol. A linear gradient was applied as follows: 0 to 1 min, 94% “A” and 6% “B”; 1 to 4 min, 6% to 100% “B”; 4 to 8 min 100% “B”; 8 to 9 min, 100% “B” to 6% “B”; 9 to 12 min, 94% “A” and 6% “B”. […] Compounds were detected at m/z equal to their respective molecular weight plus 1.

[2] = biological target: T1, human placental alkaline phosphatase (Homo sapiens, UniProt P05187); assay: Conversion of phosphate pro-drug by alkaline phosphatase in vitro; format: in vitro ADME; settings: 0.02 U/100 μL enzyme, 15 μM pro-drug, pH 7.4, within thirty minutes
T1 construct: purchased Sigma-Aldrich Canada Ltd
Experimental: The conversion into biologically active drug of phosphate pro-drugs by human placental alkaline phosphatase was measured in vitro using purified enzymes. Purified human placental alkaline phosphatase (Sigma-Aldrich Canada Ltd. Oakville, Ontario, Canada) was added at a concentration of 0.02 U/100 μL to a solution containing 15 μM of phosphate pro-drug, 20 mM Tris-HCl, pH 7.4 and 0.9% NaCl. The solutions were incubated for 10, 20 or 30 minutes. A solution containing 15 μM of phosphate pro-drug, 20 mM Tris-HCl, pH 7.4 and 0.9% NaCl was used a reference (time=0 minutes). To each solution, an equal volume (100 μL) of ice-cold acetonitrile was added, and then the mixture was vortexed and transferred to glass vials. A standard concentration curve of the pro-drug and the drug was prepared in 10 mM Tris-HCl, pH 7.4, 0.45% NaCl and 50% acetonitrile. All samples were immediately analyzed by LC/MS.

[3] = system: SW480 human colon carcinoma cancer cells; assay: SW480 colon carcinoma xenograft in SCID mice; format: in vivo, CB17 SCID/SCID female mice; settings: i.v. 10 mg/kg once a day for five days
Experimental: The resultant mice are a model for a human having colon carcinoma cancer.
The SW480 human colon carcinoma cancer cells were maintained in RPMI supplemented with 10% inactivated fetal bovine serum and 1% penicillin-streptomycin-L-Glutamine, under 5% CO2 at 37° C., and passaged twice a week. The cells were grown at a confluency lower than 70% and then collected with Trypsin (Bio-Whittaker, Md., USA). The cells were then centrifuged and washed twice using phosphate buffered saline solution (PBS) and resuspended in PBS at 1×10^6 cells per 100 μl. Viability was examined by staining with Trypan Blue and only flasks with cell viability of greater than 95% were used for in vivo studies.
(§1) SW480 cells were transplanted subcutaneously into the flank of female CB 17 SCID/SCID mice. Each mouse was inoculated with a suspension of 1×10^6 tumor cells per 100 μL on day zero. The following five treatment groups of ten mice each were used: (a) a negative control group treated with intravenous (i.v.) injection of vehicle, (b) a group treated with i.v. injection of a Compound 50, (c) a group treated with i.v. injection of a Compound 50a, (d) a group treated with i.v. injection of Compound 50b, (e) a group treated with i.v. injection of Compound 74a.
(§2) Treatment started on day twelve after SW480 cells transplantation and Compounds 50, 50a, 50b and 74a were administered i.v. once daily for five consecutive days at a dose of 10, 10, 10 and 50 mg/kg, respectively. Compound 50, 50a and 50b were prepared as a working solution of 1.5 mg/mL in a vehicle solution of 20% Cremaphor EL (Sigma, St. Louis, Miss., USA), and 10% Ethanol. Compound 74a was prepared as a working solution of 5 mg/mL in a vehicle solution of 5% Dextrose (Abbot Laboratories, QC, Canada). The negative control groups were treated with vehicle solution of 20% Cremaphor EL and 10% Ethanol alone.
(§3) The mice were weighed and the tumors measured on day 12 and every 2 to 3 days after treatment commenced. Observations continued for 23 days after initial tumor implantation. The changes in body weight and in the calculated tumor volume were plotted (FIGS. 9 and 10). Statistical analysis was performed using GraphPad Prism (GraphPad Software Inc., San Diego, Calif.). Two-way ANOVA was used to determine how the treatment affected tumor growth over time. Following the two-way ANOVA, post-tests were performed using the Benferroni method to determine the statistical difference between the mean tumor-size of the two groups being compared on every day that the tumors were measured.

[4] = system: MIA-Paca-2 human pancreatic carcinoma; assay: Cell viability, cellular ATP levels (Vialight HS); format: cell-based; settings: Table 5, MIA-Paca-2, pancreas, tumor, ATP levels 72 h post-treatment
Excerpt: (§4) The following cell lines were used: A549 human non-small cell lung carcinoma; C33A human cervical carcinoma; H1299 human non-small cell lung carcinoma; Hep-3B human hepatocellular carcinoma; MIA-Paca-2 human pancreatic carcinoma; PC-3 human prostatic adenocarcinoma (American Type Culture Collection, Manassas, Va., USA); HMEC normal human mammary epithelial cells; HUVEC normal human umbilical vein endothelial cells; and NHBE normal human bronchial epithelial cells (Cambrex Bio Science, Rockland, Me., USA). […] HMEC, HUVEC and NHBE cell lines were cultured in MEGM, EGM-2 and BEGM media, respectively (Cambrex Bio Science, Rockland, Me., USA). The cell lines were plated in 96-well microtitre plate at a density of 2–4×10^3 cells per well. After 16 hours, the cells were treated with various concentrations of Compound 50a or Compound 50b. Stock solutions of Compound 50a and Compound 50b, respectively, were prepared in dimethyl sulfoxide at a concentration of 5 mM. Serial dilutions were prepared in RPMI, 10% FBS and 2% DMSO and then added to the cells. The total DMSO in the cell cultures was 1%. […] The IC50s were determined using a best-fit sigmoidal dose response curve with variable slope.

[5] = system: Hep-3B human hepatocellular carcinoma; assay: Cell viability, cellular ATP levels (Vialight HS); format: cell-based; settings: Hep3B, Table 5, liver, tumor, ATP levels 72 h post-treatment
Excerpt: as §4

[6] = system: A549 human non-small cell lung carcinoma; assay: Cell viability, cellular ATP levels (Vialight HS); format: cell-based; settings: Table 5, A549, NSCL-adrenocarinoma, tumor, ATP levels 72 h post-treatment
Excerpt: as §4

[7] = system: PC-3 human prostatic adenocarcinoma; assay: Cell viability, cellular ATP levels (Vialight HS); format: cell-based; settings: Table 5, PC-3, prostate, tumor, ATP levels 72 h post-treatment
Excerpt: as §4

[8] = system: HMEC normal human mammary epithelial cells; assay: Cell viability, cellular ATP levels (Vialight HS); format: cell-based; settings: Table 5, breast epithelial, ATP levels 72 h post-treatment
Excerpt: as §4

[9] = system: HUVEC normal human umbilical vein endothelial cells; assay: Cell viability, cellular ATP levels (Vialight HS); format: cell-based; settings: Table 5, ATP levels 72 h post-treatment
Excerpt: as §4

[10] = system: NHBE normal human bronchial epithelial cells; assay: Cell viability, cellular ATP levels (Vialight HS); format: cell-based; settings: Table 5, ATP levels 72 h post-treatment
Excerpt: as §4

[11] = Body weight of SW480 tumor-bearing mice; format: in vivo, CB17 SCID/SCID female mice; settings: i.v. once daily for five days; 10 mg/kg (50, 50a, 50b), 50 mg/kg (74a)
Experimental: as §1, §2, §3

[12] = system: C33A human cervical carcinoma; assay: Cell viability, cellular ATP levels (Vialight HS); format: cell-based; settings: C-33-A, Table 5, C33A, cervix, tumor, ATP levels 72 h post-treatment, read-out: IC50
Excerpt: as §4
(§5) The selected tumor cell lines included C33A human cervical carcinoma and H1299 human non-small cell lung carcinoma (American Type Culture Collection, Manassas, Va., USA). The cell lines were cultured in RPMI 1640 media supplemented with 10% FBS (Hyclone, Logan, Vt., USA), 100 U/mL penicillin, 100 μg/mL streptomycin and 2 mM L-glutamine (Invitrogen, Carlsbad, Calif., USA). The cell lines were plated in 96-well microtitre plate at a density of 2–4×10^3 cells per well. After 16 hours, the cells were treated with various concentrations of compound 66, 67, 68, 69 and 70, respectively. Stock solutions of compounds 66, 67, 68, 69 and 70 were prepared in dimethyl sulfoxide at a concentration of 5 mM. Serial dilutions were prepared in RPMI, 10% FBS and 2% DMSO and then added to the cells. The total DMSO on the cells was 1%. […] The IC50s were determined using a best-fit sigmoidal dose response curve with variable slope.

[13] = system: H1299 human non-small cell lung carcinoma; assay: Cell viability, cellular ATP levels (Vialight HS); format: cell-based; settings: NCI-H1299, Table 5, H1299, NSCL-LC carcinoma, tumor, ATP levels 72 h post-treatment vs untreated cells, read-out: IC50
Excerpt: as §4, §5

T1 sequence (P05187 23-506 limits assumed): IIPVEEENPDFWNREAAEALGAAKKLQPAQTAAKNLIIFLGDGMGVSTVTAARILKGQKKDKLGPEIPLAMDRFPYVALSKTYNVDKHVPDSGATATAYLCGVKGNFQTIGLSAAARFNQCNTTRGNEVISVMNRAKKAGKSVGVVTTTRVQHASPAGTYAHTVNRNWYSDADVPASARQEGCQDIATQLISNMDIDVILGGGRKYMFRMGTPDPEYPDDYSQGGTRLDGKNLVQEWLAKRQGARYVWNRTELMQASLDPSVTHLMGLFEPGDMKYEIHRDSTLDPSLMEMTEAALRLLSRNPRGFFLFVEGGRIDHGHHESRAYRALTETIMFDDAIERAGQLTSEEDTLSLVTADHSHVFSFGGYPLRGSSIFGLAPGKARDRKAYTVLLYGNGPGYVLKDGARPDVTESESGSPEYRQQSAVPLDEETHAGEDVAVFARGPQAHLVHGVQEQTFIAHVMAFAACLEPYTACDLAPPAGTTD

Structure (SMILES) | solubility [1] [µg/mL] | Conversion of pro-drug into drug Compound 50 [2] | Tumor growth compared to vehicle [3] | IC50 [4] [nM] | IC50 [5] [nM] | IC50 [6] [nM] | IC50 [7] [nM] | IC50 [8] [nM] | IC50 [9] [nM] | IC50 [10] [nM] | Change in body weight [11] | IC50 [12] [nM] | IC50 [13] [nM]
COc1ccc2c(c1)C1(C)C=CC(=O)C(C)(C)C1=C(OP(=O)(O)O)C2=O (racemic) [Compound 74] | ≥ 10000 | convert a fraction of the pro-drug |  |  |  |  |  |  |  |  |  |  | 
COc1ccc2c(c1)[C@@]1(C)C=CC(=O)C(C)(C)C1=C(O)C2=O [Compound 50a] |  |  | significant reduction (p<0.001) | 660 | 970 | 630 | 370 | 2300 | 1700 | 1200 | non-significant change in body weight | 500 | 550
